In paper PMC10691883, “Efficient One-Pot Synthesis of Novel Caffeic Acid Derivatives as Potential Antimalarials” (Journal of Parasitology Research, 2023):
Where two headings read alike, the source gives them in different places.

How the values were obtained:
[1] = system: P. falciparum D10 (CQ-sensitive) strain; assay: P. falciparum drug susceptibility assay (pLDH), CQ-sensitive strain D10; format: cell-based; settings: for SID10: IC50(NHDF)/IC50(D10); for IC50: Plasmodium falciparum
Method: (§1) P. falciparum cultures were prepared and maintained according to the method of Trager and Jensen, with slight modifications. […] Serial dilutions of the compounds were prepared in 96-well flat-bottomed microplates. […] Parasite growth was determined spectrophotometrically (OD650) by measuring the activity of parasite lactate dehydrogenase (pLDH), according to a modified version of the method of Makler and Hinrichs, in control and compound-treated cultures.

[2] = system: P. falciparum W2 (CQ-resistant) strain; assay: P. falciparum drug susceptibility assay (pLDH), CQ-resistant strain W2; format: cell-based; settings: for SIW2: IC50(NHDF)/IC50(W2); for IC50: Plasmodium falciparum, read-out: P. falciparum IC50 W2
Method: as §1

[3] = system: NHDF cells (normal human dermal fibroblasts); settings: read-out: Cytotoxicity IC50, MTT; cited from earlier work
[4] = system: P. berghei; design: method as in PMID 30033538; settings: 100 mg/kg, in vivo; cited from earlier work
[5] = MTT cytotoxicity assay on NHDF cells; format: cell-based; settings: human, NHDF cells (normal human dermal fibroblasts)
Method: NHDF cells were grown in alpha-MEM medium supplemented likewise with 10% FBS, L-glutamine, and antibiotic-antimycotic. Cultures were maintained at 37°C, in a humidified Innova CO-180 incubator (New Brunswick Scientific, Edison, NJ, USA) in an atmosphere containing 5% CO2. The cytotoxic effects of CA derivatives were evaluated as described in literature using the standard MTT assay. Briefly, NHDF cells were seeded in a 96-well plate at a density of 5 × 10^3 cells per well in an alpha-MEM medium. Cells were grown overnight and subsequently exposed to the different concentrations of tested compounds dissolved in DMSO. An equivalent volume of DMSO was used as a negative control. After 72 h of incubation, media containing the test compounds were removed, the cells were washed with sterile PBS, and 50 μL of MTT solution (0.5 mg/mL stock solution was 10 times diluted in the appropriate culture medium) was added to each well for 3 h at 37°C. Subsequently, the MTT solution was removed, the formazan crystals were solubilized in DMSO, and absorbance was recorded using an Asys UVM 340 multiwell plate reader (Cambridge, UK) at 560 nm with a reference wavelength of 670 nm. The % of cell viability was calculated using the following formula: Cell viability (%) = (AT/AC) × 100, where AT is the absorbance of the treatment well (treated cells) and AC is the absorbance of the control well (not treated cells). GraphPad Prism software for Windows (GraphPad Software, La Jolla, CA, USA) was used to calculate IC50 values.

[6] = Hemolytic activity against human erythrocytes; format: cell-based; settings: freshly isolated human red blood cells (erythrocytes), PBS, 37°C
Method: Hemolytic activity was measured as described by Jaromin et al. Compounds 3 and 4, dissolved in DMSO, were added in a volume corresponding to a final concentration of 12.5 μM and then incubated with freshly isolated human red blood cells in PBS buffer at 37°C for 30 min. After centrifugation, the absorbance was determined at 540 nm, to assess the released hemoglobin. In addition, negative (erythrocytes in PBS buffer), positive (erythrocytes in distilled water), and DMSO controls were also performed. The study protocol was approved by the Bioethics Commission at the Lower Silesian Medical Chamber (1/PNHAB/2018).

[7] = D10 CQ-sensitive strain, 72 h, pLDH, mean ± SD, read-out: P. falciparum IC50 D10
[8] = strain not given (D10 and/or W2), read-out: P. falciparum IC50
[9] = W2 CQ-resistant strain, 72 h, pLDH, mean ± SD

SMILES	IC50 [1, 7] [µM]	IC50 [1, 8] [µM]	IC50 [2, 9] [µM]	fold decrease of IC50 versus compound 1 ([2]; CQ-resistant strain, 4 compared with 1) [times]	melting point [°C]	SID10 [1]	IC50 ([1]; D10, 72 h, read-out: P. falciparum IC50 D10) [µM]	SIW2 [2]	IC50 ([2]; W2, 72 h) [µM]	IC50 [3] [µM]	P. berghei inhibition growth [4] [%]	RI (resistance index) ([2]; ratio IC50 W2 / IC50 D10)	IC50 at 72 h [5] [µM]	hemolysis at 30 min, 12.5 µM [6] [%]
CCN(CC)CCCC(C)Nc1ccnc2cc(Cl)ccc12 (centres unmarked) [CQ, chloroquine, reference compound]	–	–	–	–	–	2047.5	0.02 ± 0.01	178.04	0.23 ± 0.08	41 ± 2.29	–	–	–	–
CCOC(=O)/C=C/c1ccc(O)c(O)c1 [Ethyl caffeate]	–	–	–	–	–	–	–	–	–	–	55	–	–	–
CC(C)(C)OC(=O)/C=C/c1ccc(O)cc1O [Compound 1, tert-Butyl (2E)-3-(2,4-Dihydroxyphenyl)-propenoate]	28.6 ± 1.94	–	86.4 ± 27.4	–	–	8.73	–	2.89	–	–	–	3.02	249.8 ± 0.51	–
O=C(O)/C=C/c1ccc(O)c(O)c1 [CA, (E)-3-(3,4-dihydroxyphenyl)prop-2-enoic acid, reference compound]	> 278	–	> 278	–	–	–	–	–	–	–	–	–	–	–

The next lines start with results.

IC50 [1, 7] [µM]	IC50 [1, 8] [µM]	IC50 [2, 9] [µM]	fold decrease of IC50 versus compound 1 ([2]; CQ-resistant strain, 4 compared with 1) [times]	melting point [°C]	SMILES	SID10 [1]	IC50 ([1]; D10, 72 h, read-out: P. falciparum IC50 D10) [µM]	SIW2 [2]	IC50 ([2]; W2, 72 h) [µM]	IC50 [3] [µM]	P. berghei inhibition growth [4] [%]	RI (resistance index) ([2]; ratio IC50 W2 / IC50 D10)	IC50 at 72 h [5] [µM]	hemolysis at 30 min, 12.5 µM [6] [%]
145 ± 53.6	117	131 ± 52.7	–	–	CCOC(=O)/C(C)=C/c1ccc(O)c(F)c1 [Compound 5, Ethyl (2E)-3-(3-Fluoro-4-hydroxyphenyl)-2-methylpropenoate]	–	–	–	–	–	–	–	–	–
12.2 ± 4.9	11 to 12.7	11 ± 4.88	7.9	175	CC(C)(C)OC(=O)/C=C/c1ccc(O)c(O)c1O [Compound 4, tert-Butyl (2E)-3-(2,3,4-Trihydroxyphenyl)-propenoate]	7.42	–	8.24	–	–	–	–	90.3 ± 10.3	52.9 ± 2.93
42.1 ± 9.12	–	38.8 ± 17.8	–	172 to 173	CCOC(=O)/C=C/c1ccc(O)c(O)c1O [Compound 2, Ethyl (2E)-3-(2,3,4-Trihydroxyphenyl)-propenoate]	2.74	–	2.98	–	–	–	–	115 ± 1.76	–
129 ± 59.6	145	117 ± 35.9	–	88.3	CC(C)(C)OC(=O)/C=C/c1ccc(O)c(F)c1 [Compound 6, tert-Butyl (2E)-3-(3-Fluoro-4-hydroxyphenyl)-propenoate]	1.77	–	1.95	–	–	–	–	229 ± 7.57	–
12.7 ± 2.33	11 to 12.7	11.3 ± 4.81	–	140	CCOC(=O)/C(C)=C/c1ccc(O)c(O)c1O [Compound 3, Ethyl (2E)-3-(2,3,4-Trihydroxyphenyl)-2-methylpropenoate]	6.23	–	7.02	–	–	–	–	79.2 ± 6.14	4.13 ± 0.85
